# Assay results as given in patent publication US9586904B2, “Preparation of (−)-huperzine A” (priority 2013, dated 2017).
# Assay: Solubility of huperzine A-chiral acid salts and of (±)-huperzine A in solvents
# Assay type: physicochemical
# Source text: This invention first prepared a series of huperzine A-chiral acid salts.
substance,measurement,setting,value
(±)-huperzine A,solubility in most solvents,most solvents,rather poorly soluble
same,solubility in various single solvents,"various single solvents, during salt formation",very poor
